{"source": "patent US20250230193A1", "about": "“CYCLIC COMPOUND HAVING SELECTIVE KRAS INHIBITORY EFFECT ON HRAS AND NRAS” (CHUGAI SEIYAKU KABUSHIKI KAISHA, priority 2022, published 2025)", "key": {"[1]": {"target": "GDP-bound NRAS wild-type protein (Homo sapiens, UniProt P01111)", "sequence (P01111 whole entry)": "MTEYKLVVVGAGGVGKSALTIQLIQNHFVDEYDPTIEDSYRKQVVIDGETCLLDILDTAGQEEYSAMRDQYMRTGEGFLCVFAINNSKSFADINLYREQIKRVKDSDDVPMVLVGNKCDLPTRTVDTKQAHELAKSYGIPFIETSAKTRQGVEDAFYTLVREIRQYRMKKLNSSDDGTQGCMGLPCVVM", "assay": "Binding to NRAS by surface plasmon resonance (SPR), Single Cycle Kinetics"}, "[2]": {"target": "GDP-bound HRAS wild-type protein (Homo sapiens, UniProt P01112)", "sequence (P01112 whole entry)": "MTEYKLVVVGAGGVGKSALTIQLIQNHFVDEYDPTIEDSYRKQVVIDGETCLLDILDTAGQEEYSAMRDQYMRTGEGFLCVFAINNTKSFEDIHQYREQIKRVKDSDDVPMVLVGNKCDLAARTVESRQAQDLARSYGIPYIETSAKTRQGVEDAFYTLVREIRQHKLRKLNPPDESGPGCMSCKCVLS", "assay": "Binding to HRAS by surface plasmon resonance (SPR), Single Cycle Kinetics"}, "[3]": {"settings": "KD ratio NRAS/KRAS, class symbols"}, "[4]": {"settings": "KD ratio HRAS/KRAS, class symbols"}}, "note": "Where a SMILES comes first, the peptide text is derived from it. Bridges are numbered along the chain shown (N, C = ends). [ ]: non-standard residue; d: D form. The star is where a group is joined. hPhe(3,5-F2-4-CF3) = N[C@@H](CCc1cc(F)c(C(F)(F)F)c(F)c1)C(=O)O; hPhe(3-Cl-4-CF3) = N[C@@H](CCc1ccc(C(F)(F)F)c(Cl)c1)C(=O)O; NPrPhe(4-CF3) = CCCN[C@@H](Cc1ccc(C(F)(F)F)cc1)C(=O)O; NMeGly(cPent) = CN[C@H](C(=O)O)C1CCCC1; Nva(3-Et) = CCC(CC)[C@H](N)C(=O)O; NMeD = CN[C@@H](CC(=O)O)C(=O)O; NMeL = CN[C@@H](CC(C)C)C(=O)O; Morpholide = C1CN(*)CCO1; Ac5c = NC1(C(=O)O)CCCC1; Aze = O=C(O)[C@@H]1CCN1; NEtG = CCNCC(=O)O; Sar = CNCC(=O)O"}
{"smiles": "CCCN1C(=O)CN(C)C(=O)CN(CC)C(=O)[C@H]([C@@H](C)CC)NC(=O)[C@H](CC(C)C)N(C)C(=O)C[C@@H](C(=O)N2CCOCC2)N(C)C(=O)[C@H](C2CCCC2)N(C)C(=O)C2(CCCC2)NC(=O)[C@@H]2CCCN2C(=O)[C@H](CCc2ccc(C(F)(F)F)c(Cl)c2)NC(=O)CN(C)C(=O)[C@@H]1Cc1ccc(C(F)(F)F)cc1", "note": "[PP0145] ([NMeL]I[NEtG][Sar][NPrPhe(4-CF3)][Sar][hPhe(3-Cl-4-CF3)]P[Ac5c][NMeGly(cPent)][NMeD]-Morpholide; lactam N-11)", "values": [{"measurement": "NRAS/KRAS (ratio of KD for GDP-bound NRAS wild-type to KD for KRAS)", "setting": "[1]; KD ratio NRAS/KRAS, SPR", "value": "B (a compound having 3 or more and less than 10 is denoted as B)"}, {"measurement": "HRAS/KRAS (ratio of KD for GDP-bound HRAS wild-type to KD for KRAS)", "setting": "[2]; KD ratio HRAS/KRAS, SPR", "value": "B (a compound having 3 or more and less than 10 is denoted as B)"}]}
{"smiles": "CCCN1C(=O)[C@@H]2CCN2C(=O)CN(C)C(=O)[C@H](C(CC)CC)NC(=O)[C@H](CC(C)C)N(C)C(=O)C[C@@H](C(=O)N2CCOCC2)N(C)C(=O)[C@H](C2CCCC2)N(C)C(=O)C2(CCCC2)NC(=O)[C@@H]2CCCN2C(=O)[C@H](CCc2cc(F)c(C(F)(F)F)c(F)c2)NC(=O)CN(C)C(=O)[C@@H]1Cc1ccc(C(F)(F)F)cc1", "note": "[PP0804] ([NMeL][Nva(3-Et)][Sar][Aze][NPrPhe(4-CF3)][Sar][hPhe(3,5-F2-4-CF3)]P[Ac5c][NMeGly(cPent)][NMeD]-Morpholide; lactam N-11)", "values": [{"measurement": "NRAS/KRAS (ratio of KD value with respect to GDP-bound NRAS wild-type protein to KD value with respect to KRAS)", "setting": "[1]; KD ratio NRAS/KRAS, SPR", "value": "C (A compound having a KD ratio of 0.1 or more and less than 3 is denoted as C)"}, {"measurement": "HRAS/KRAS (ratio of KD value with respect to GDP-bound HRAS wild-type protein to KD value with respect to KRAS)", "setting": "[2]; KD ratio HRAS/KRAS, SPR", "value": "B (a compound having 3 or more and less than 10 is denoted as B)"}]}
{"smiles": "CCO[C@@H]1C[C@H]2C(=O)NC3(CCC3)C(=O)N(C)[C@@H](C3CCCC3)C(=O)N(C)[C@H](C(=O)N(C)C)CC(=O)N(C)[C@@H](CC3CC3)C(=O)N[C@@H]([C@@H](C)CC)C(=O)N(C)CC(=O)N(C)[C@H]3C/C=C\\CCN(C3=O)[C@@H](Cc3ccc(C(F)(F)F)cc3)C(=O)N(C)CC(=O)N[C@@H](CCc3cc(F)c(C(F)(F)F)c(F)c3)C(=O)N2C1", "note": "[PP1111]", "values": [{"measurement": "NRAS/KRAS (ratio of KD value with respect to NRAS to KD value with respect to KRAS)", "setting": "[1]; KD ratio, GDP-bound NRAS wild-type vs GDP-bound KRAS wild-type, SPR", "value": "A (a compound having 10 or more and less than 20 is denoted as A)"}, {"measurement": "HRAS/KRAS (ratio of KD value with respect to HRAS to KD value with respect to KRAS)", "setting": "[2]; KD ratio, GDP-bound HRAS wild-type vs GDP-bound KRAS wild-type, SPR", "value": "A (a compound having 10 or more and less than 20 is denoted as A)"}]}
{"smiles": "CCO[C@@H]1C[C@H]2C(=O)NC3(CCC3)C(=O)N(C)[C@@H](C3CCCC3)C(=O)N(C)[C@H](C(=O)N(C)C)CC(=O)N(C)[C@@H](CC3CCCC3)C(=O)N[C@@H]([C@@H](C)CC)C(=O)N(C)CC(=O)N(C)[C@H]3C/C=C\\CCN(C3=O)[C@@H](Cc3ccc(C)cc3)C(=O)N(C)CC(=O)N[C@@H](CCc3cc(C)c(C(F)F)c(Cl)c3)C(=O)N2C1", "note": "[PP2677]", "values": [{"measurement": "NRAS/KRAS (ratio of KD value with respect to GDP-bound NRAS wild-type protein to KD value with respect to KRAS)", "setting": "[1]; [3]", "value": "A (a compound having 10 or more and less than 20 is denoted as A)"}, {"measurement": "HRAS/KRAS (ratio of KD value with respect to GDP-bound HRAS wild-type protein to KD value with respect to KRAS)", "setting": "[2]; [4]", "value": "A (a compound having 10 or more and less than 20 is denoted as A)"}]}
{"smiles": "CCO[C@@H]1C[C@H]2C(=O)NC3(CCC3)C(=O)N(C)[C@@H](C3CCCC3)C(=O)N(C)[C@H](C(=O)N(C)C)CC(=O)N(C)[C@@H](Cc3ccccc3)C(=O)N[C@@H]([C@@H](C)CC)C(=O)N(C)CC(=O)N(C)[C@H]3CCCCCN(C3=O)[C@@H](Cc3ccc(C(F)(F)F)cc3)C(=O)N(C)CC(=O)N[C@@H](CCc3cc(F)c(C(F)(F)F)c(F)c3)C(=O)N2C1", "note": "[PP0672]", "values": [{"measurement": "NRAS/KRAS (ratio of KD value with respect to GDP-bound NRAS wild-type protein to KD value with respect to KRAS)", "setting": "[1]; KD ratio NRAS/KRAS, SPR", "value": "B (a compound having 3 or more and less than 10 is denoted as B)"}, {"measurement": "HRAS/KRAS (ratio of KD value with respect to GDP-bound HRAS wild-type protein to KD value with respect to KRAS)", "setting": "[2]; KD ratio HRAS/KRAS, SPR", "value": "B (a compound having 3 or more and less than 10 is denoted as B)"}]}
{"smiles": "CCC[C@H]1C(=O)N[C@@H]([C@@H](C)CC)C(=O)N(C)CC(=O)N(C)[C@H]2C/C=C\\CCN(C2=O)[C@@H](Cc2ccc(C(F)(F)F)cc2)C(=O)N(C)CC(=O)N[C@@H](CCc2ccc(Cl)c(Cl)c2)C(=O)N2C[C@H](OCC)C[C@H]2C(=O)NC2(CC(C)(C)C2)C(=O)N(C)[C@@H](CC2CC2)C(=O)N(C)[C@H](C(=O)N(C)C)CC(=O)N1C", "note": "[PP2811]", "values": [{"measurement": "NRAS/KRAS (ratio of KD value with respect to GDP-bound NRAS wild-type protein to KD value with respect to KRAS)", "setting": "[1]; [3]", "value": "A (a compound having 10 or more and less than 20 is denoted as A)"}, {"measurement": "HRAS/KRAS (ratio of KD value with respect to GDP-bound HRAS wild-type protein to KD value with respect to KRAS)", "setting": "[2]; [4]", "value": "A (a compound having 10 or more and less than 20 is denoted as A)"}]}
